Measured values taken from patent publication US7045343B2, “Sterilization indicator test packs” (3M Innovative Properties Company, priority 1998, dated 2006).

Legend:
[1] = tested on: enzyme associated with Bacillus stearothermophilus spores; experiment: Rapid enzyme fluorescence readout of indicators after hydrogen peroxide plasma sterilization; type: biochemical; conditions: for FLUORESCENCE - PERCENT POSITIVE 1 HR / FLUORESCENCE - PERCENT POSITIVE 2 HR / FLUORESCENCE - PERCENT POSITIVE 3 HR / FLUORESCENCE - PERCENT POSITIVE 4 HR / FLUORESCENCE - PERCENT POSITIVE 5 HR: 1–22 min diffusion
Protocol: (§1) Sterilization indicators for Examples 6–9 were prepared as described above with the exception that closure member 22 of the sterilization indicator was constructed of TYVEK™ high-density polyethylene fiber material, commercially available from E.I. du Pont de Nemours and Co., Wilmington, Del.
(§2) Sterilization indicators were made as described above with spores that had been coated with each of the chemicals and concentrations listed in Table 6. The indicators were placed in instrument trays and exposed to a hydrogen peroxide plasma sterilization procedure at 45–55° C. in a STERRAD™ 100SI GMP Sterilizer, obtained from Advanced Sterilization Products Co., Irvine, Calif. During the sterilization procedure a vacuum was drawn in the sterilization chamber for 5–6 minutes until the pressure was reduced to 300 mTorr. A 1.8 ml aliquot of an aqueous solution of 58–60% hydrogen peroxide was then injected into the sterilization chamber over a period of about 6 minutes, yielding an empty chamber concentration of […] hydrogen peroxide, and hydrogen peroxide vapor was allowed to diffuse throughout the chamber for 1–22 minutes at 6–10 Torr. A vacuum was then drawn, reducing the pressure to 500 mTorr and removing all detectable hydrogen peroxide vapor from the chamber.
(§3) After exposure to the sterilization procedure, the indicators were removed from the sterilizer and the inner containers containing the enzyme substrate and nutrient medium were crushed. The indicators were then incubated at 60° C. and examined for fluorescence every hour for 5 hours using a 3M™ ATTEST™ Model 190 Rapid Autoreader, commercially available from 3M Company, St. Paul, Minn. Additionally, spore growth, as indicated by a color change from purple to yellow, was determined visually after 168 hours of incubation.
(§4) The number of growth positive indicators detected after 168 hours of incubation is recorded in Table 6.
as §2, with “7.” for “6.”
as §2, with “8.” for “6.”, “chamber. […]” for “chamber.”

[2] = tested on: Bacillus stearothermophilus spores; experiment: Spore outgrowth (color change) of indicators after prevacuum steam sterilization; type: cell-based; conditions: 4-pulse prevacuum steam 121° C.
How it was run: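 Self-contained indicators held coated spore strips, a polypropylene microfiber barrier and a crushable inner container. That container held peptone, L-alanine, 4-methylumbelliferyl-alpha-D-glucoside and bromocresol purple at pH 7.6. Indicators sat in metal trays in a Getinge sterilizer running pulses of 0.075–0.085 bar vacuum and steam to 1.00 bar at 121° C. Incubation at 60° C followed, and yellow color at 168 hours scored spore outgrowth.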

[3] = tested on: Bacillus stearothermophilus spores; experiment: Spore outgrowth (color change) of indicators after hydrogen peroxide plasma sterilization; type: cell-based; conditions: 1–22 min diffusion
Protocol: as §1, §2, §3, §4
as §2, with “7.” for “6.”
as §2, with “8.” for “6.”, “chamber. […]” for “chamber.”

[4] = tested on: enzyme associated with Bacillus stearothermophilus spores; experiment: Rapid enzyme fluorescence readout of dual rapid readout indicators after prevacuum steam sterilization; type: biochemical; conditions: 4-pulse prevacuum steam 121° C.
How it was run: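 This is a rapid enzyme test in which spore-associated enzyme activity is detected by fluorescence. Spores coated with chemicals were dried on 5×25 mm paper strips for 16 hours at 37° C. They were loaded into indicators that carried 4-methylumbelliferyl-alpha-D-glucoside substrate, with untreated spores serving as controls. After 4-pulse prevacuum steam exposure at 121° C, with vacuum at 0.075–0.085 bar, the substrate ampoules were crushed and the indicators were incubated at 60° C and read with an autoreader.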

[5] = Example 5, 50 mg/ml coating, 7–13 min
[6] = Example 5, 100 mg/ml coating, 7–13 min
[7] = Example 4, 50 mg/ml coating, 7–18 min
[8] = Example 4, 100 mg/ml coating, 7–18 min

Substance | accuracy of sterilization indicators compared to indicators made with untreated spores ([1]; 2–3 hours after exposure) | FLUORESCENCE - PERCENT POSITIVE 1 HR ([1]; Example 7, 50 mg/ml coating) [%] | FLUORESCENCE - PERCENT POSITIVE 2 HR ([1]; Example 7, 50 mg/ml coating) [%] | FLUORESCENCE - PERCENT POSITIVE 3 HR ([1]; Example 7, 50 mg/ml coating) [%] | FLUORESCENCE - PERCENT POSITIVE 4 HR ([1]; Example 7, 50 mg/ml coating) [%] | FLUORESCENCE - PERCENT POSITIVE 5 HR ([1]; Example 7, 50 mg/ml coating) [%] | FLUORESCENCE - PERCENT POSITIVE 1 HR ([1]; Example 7, 100 mg/ml coating) [%] | FLUORESCENCE - PERCENT POSITIVE 2 HR ([1]; Example 7, 100 mg/ml coating) [%] | FLUORESCENCE - PERCENT POSITIVE 3 HR ([1]; Example 7, 100 mg/ml coating) [%] | FLUORESCENCE - PERCENT POSITIVE 4 HR ([1]; Example 7, 100 mg/ml coating) [%] | NO. GROWTH POSITIVE 168 HR [2, 7] | NO. GROWTH POSITIVE 168 HR [2, 8] | FLUORESCENCE - PERCENT POSITIVE 1 HR [4, 7] [%] | FLUORESCENCE - PERCENT POSITIVE 2 HR [4, 7] [%] | FLUORESCENCE - PERCENT POSITIVE 3 HR [4, 7] [%] | FLUORESCENCE - PERCENT POSITIVE 4 HR [4, 7] [%] | FLUORESCENCE - PERCENT POSITIVE 1 HR [4, 8] [%] | FLUORESCENCE - PERCENT POSITIVE 2 HR [4, 8] [%] | FLUORESCENCE - PERCENT POSITIVE 3 HR [4, 8] [%] | FLUORESCENCE - PERCENT POSITIVE 4 HR [4, 8] [%] | further results
polyoxyethylene (20) sorbitan monostearate [POE(20) Sorbitan Monostearate] | improved | 100 | 100 | 100 | 100 | 100 | 50 | 50 | 62.5 | 75 | – | – | – | – | – | – | – | – | – | – | FLUORESCENCE - PERCENT POSITIVE 5 HR ([1]; Example 7, 100 mg/ml coating): 75%; NO. GROWTH POSITIVE 168 HR [2, 5]: 5; NO. GROWTH POSITIVE 168 HR [2, 6]: 2; NO. GROWTH POSITIVE 168 HR ([3]; Example 7, 50 mg/ml coating): 6; NO. GROWTH POSITIVE 168 HR ([3]; Example 7, 100 mg/ml coating): 8; FLUORESCENCE - PERCENT POSITIVE 1 HR [4, 5]: 0%; FLUORESCENCE - PERCENT POSITIVE 2 HR [4, 5]: 0%; FLUORESCENCE - PERCENT POSITIVE 3 HR [4, 5]: 0%; FLUORESCENCE - PERCENT POSITIVE 4 HR [4, 5]: 0%; FLUORESCENCE - PERCENT POSITIVE 1 HR [4, 6]: 0%; FLUORESCENCE - PERCENT POSITIVE 2 HR [4, 6]: 0%; FLUORESCENCE - PERCENT POSITIVE 3 HR [4, 6]: 0%; FLUORESCENCE - PERCENT POSITIVE 4 HR [4, 6]: 0%
Decaglyceral Hexaoleate | – | – | – | – | – | – | – | – | – | – | 9 | 18 | 0 | 0 | 22.2 | 55.6 | 5.6 | 16.7 | 27.8 | 33.3 | accuracy of sterilization indicators compared to indicators made with untreated spores ([1]; 1–3 hours after exposure): improved; FLUORESCENCE - PERCENT POSITIVE 1 HR ([1]; Example 6, 10 mg/ml coating): 100%; FLUORESCENCE - PERCENT POSITIVE 2 HR ([1]; Example 6, 10 mg/ml coating): 100%; FLUORESCENCE - PERCENT POSITIVE 3 HR ([1]; Example 6, 10 mg/ml coating): 100%; FLUORESCENCE - PERCENT POSITIVE 4 HR ([1]; Example 6, 10 mg/ml coating): 100%; FLUORESCENCE - PERCENT POSITIVE 5 HR ([1]; Example 6, 10 mg/ml coating): 100%; NO. GROWTH POSITIVE 168 HR ([3]; Example 6, 10 mg/ml coating): 12
Decaglyceryl Dipalmitate | – | – | – | – | – | – | – | – | – | – | 28 | 26 | 7.1 | 67.9 | 89.3 | 92.9 | 34.6 | 61.5 | 69.2 | 69.2 | FLUORESCENCE - PERCENT POSITIVE 1 HR ([1]; Example 8, 50 mg/ml coating): 66.7%; FLUORESCENCE - PERCENT POSITIVE 2 HR ([1]; Example 8, 50 mg/ml coating): 74.1%; FLUORESCENCE - PERCENT POSITIVE 3 HR ([1]; Example 8, 50 mg/ml coating): 77.8%; FLUORESCENCE - PERCENT POSITIVE 4 HR ([1]; Example 8, 50 mg/ml coating): 77.8%; FLUORESCENCE - PERCENT POSITIVE 5 HR ([1]; Example 8, 50 mg/ml coating): 77.8%; NO. GROWTH POSITIVE 168 HR ([3]; Example 8, 50 mg/ml coating): 27; accuracy of sterilization indicators compared to indicators made with untreated spores [4]: improved
Hexaglyceryl Dioleate | – | – | – | – | – | – | – | – | – | – | 7 | 23 | 0 | 0 | 0 | 0 | 0 | 0 | 0 | 0 | FLUORESCENCE - PERCENT POSITIVE 1 HR ([1]; Example 6, 50 mg/ml coating): 66.7%; FLUORESCENCE - PERCENT POSITIVE 2 HR ([1]; Example 6, 50 mg/ml coating): 100%; FLUORESCENCE - PERCENT POSITIVE 3 HR ([1]; Example 6, 50 mg/ml coating): 100%; FLUORESCENCE - PERCENT POSITIVE 4 HR ([1]; Example 6, 50 mg/ml coating): 100%; FLUORESCENCE - PERCENT POSITIVE 5 HR ([1]; Example 6, 50 mg/ml coating): 100%; NO. GROWTH POSITIVE 168 HR ([3]; Example 6, 50 mg/ml coating): 6
polyoxyethylene (60) glycerol monostearate [POE(60) Glycerol Monostearate] | improved | 100 | 100 | 100 | 100 | 100 | 57.1 | 57.1 | 71.4 | 71.4 | – | – | – | – | – | – | – | – | – | – | FLUORESCENCE - PERCENT POSITIVE 5 HR ([1]; Example 7, 100 mg/ml coating): 71.4%; NO. GROWTH POSITIVE 168 HR ([3]; Example 7, 50 mg/ml coating): 7; NO. GROWTH POSITIVE 168 HR ([3]; Example 7, 100 mg/ml coating): 7
